# Data taken from patent US20260258064A1 (SIRONAX LTD., priority 2023, published 2026).
# Target: T1, SARM1 (50-724) (Homo sapiens, UniProt Q6SZW1)
# T1 construct: Purified SARM1 (50-724) with a final concentration of 2 nM was pre-incubated with a test compound
# T1 sequence (Q6SZW1 50-724): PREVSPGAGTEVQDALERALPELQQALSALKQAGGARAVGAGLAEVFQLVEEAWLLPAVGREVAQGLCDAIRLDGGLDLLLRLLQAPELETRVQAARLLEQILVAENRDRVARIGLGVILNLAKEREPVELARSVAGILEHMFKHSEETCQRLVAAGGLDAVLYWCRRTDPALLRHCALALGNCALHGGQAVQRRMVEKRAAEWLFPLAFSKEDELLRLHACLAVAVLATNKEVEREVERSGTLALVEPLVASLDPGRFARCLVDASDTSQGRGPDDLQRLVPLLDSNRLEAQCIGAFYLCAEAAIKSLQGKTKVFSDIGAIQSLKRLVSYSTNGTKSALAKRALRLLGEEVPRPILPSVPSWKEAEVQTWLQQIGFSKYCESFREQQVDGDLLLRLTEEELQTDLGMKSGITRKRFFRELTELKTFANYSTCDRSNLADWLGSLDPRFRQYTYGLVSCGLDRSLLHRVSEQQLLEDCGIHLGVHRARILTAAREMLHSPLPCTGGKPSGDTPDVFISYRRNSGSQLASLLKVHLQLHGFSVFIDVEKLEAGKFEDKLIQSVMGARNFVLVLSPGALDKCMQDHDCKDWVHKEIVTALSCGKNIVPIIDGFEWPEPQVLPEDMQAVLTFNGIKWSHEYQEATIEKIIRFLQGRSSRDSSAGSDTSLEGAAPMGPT
# Assay: SARM1 (50-724) enzymatic assay (LC-MS/MS)
# Type: biochemical
# Details: Purified SARM1 (50-724) 2 nM, NMN as activator, NAD+ as substrate, 1 h at room temperature, read-out: IC50 (SARM1 inhibitory activity)
# Description: An enzymatic assay was performed in a 384-well plate using Dulbecco's phosphate-buffered saline (PBS) as the reaction buffer. Purified SARM1 (50-724) with a final concentration of 2 nM was pre-incubated with a test compound at […] final assay concentration for 15 min at room temperature. The reaction was initiated by adding a mixture of […] nicotinamide mononucleotide (NMN) as activator and […] NAD^+ as substrate. After 1 h of incubation at room temperature, the reaction was terminated with 10 times volume of 70% acetonitrile, and then centrifuged at 3800 rpm for 10 min. The samples were analyzed using LC-MS/MS after diluted to a proper concentration by 10 mM ammonium acetate (pH 9.75).
# In Table 2, activity is provided as follows: A: IC50≤100 nM; B: 100 nM<IC50≤500 nM; C: 500 nM<IC50≤1000 nM; D: IC50>1000 nM.
row,SMILES,IC50
1,"COc1ncc(Cl)c(-n2cnnc2-c2nc3cc(C(F)(F)F)ccc3[nH]2)n1 [Compound 169, 2-(4-(5-chloro-2-methoxypyrimidin-4-yl)-4H-1,2,4-triazol-3-yl)-5-(trifluoromethyl)-1H-benzo[d]imidazole]",> 1000 nM
2,"FC(F)(F)c1ccncc1-n1cnnc1-c1nc2c(C3CC3)c(Cl)ccc2[nH]1 [Compound 333, 6-chloro-7-cyclopropyl-2-(4-(4-(trifluoromethyl)pyridin-3-yl)-4H-1,2,4-triazol-3-yl)-1H-benzo[d]imidazole]",500 to 1000 nM
3,"FC(F)(F)c1ccc2[nH]c(-c3nccnc3-c3cccc(Cl)c3Cl)nc2c1 [Compound 304, 2-(3-(2,3-dichlorophenyl)pyrazin-2-yl)-5-(trifluoromethyl)-1H-benzo[d]imidazole]",500 to 1000 nM
4,"FC(F)(F)c1ccc2[nH]c(N3CCC3c3ccccc3)nc2c1 (stereo not shown) [Compound 344, 2-(2-phenylazetidin-1-yl)-5-(trifluoromethyl)-1H-benzo[d]imidazole]",500 to 1000 nM
5,"Fc1cc(N2CCC(F)(F)C2)cc2nc(-c3nncn3-c3cnccc3C(F)(F)F)[nH]c12 [Compound 326, 5-(3,3-difluoropyrrolidin-1-yl)-7-fluoro-2-(4-(4-(trifluoromethyl)pyridin-3-yl)-4H-1,2,4-triazol-3-yl)-1H-benzo[d]imidazole]",100 to 500 nM
6,"OC1CCN(c2cc(F)c3[nH]c(-c4nncn4-c4cnccc4C(F)(F)F)nc3c2)C1 (stereo not shown) [Compound 447, 1-(4-fluoro-2-(4-(4-(trifluoromethyl)pyridin-3-yl)-4H-1,2,4-triazol-3-yl)-1H-benzo[d]imidazol-6-yl)pyrrolidin-3-ol]",500 to 1000 nM
7,"FC(F)(F)c1ccc2[nH]c(C3CSCCN3c3ccccc3)nc2c1 (stereo not shown) [Compound 361, 4-phenyl-3-[5-(trifluoromethyl)-1H-benzimidazol-2-yl]thiomorpholine]",> 1000 nM
8,"FC(F)(F)c1ccc2[nH]c(-c3nncn3-c3cnccc3C(F)(F)F)c(C3CCNC3)c2c1 (stereo not shown) [Compound 375, 3-(pyrrolidin-3-yl)-5-(trifluoromethyl)-2-(4-(4-(trifluoromethyl)pyridin-3-yl)-4H-1,2,4-triazol-3-yl)-1H-indole]",100 to 500 nM
9,"Cc1ccc2[nH]c(-c3ccc(C#N)n3C3CCCC3)nc2c1 [Compound 19, 1-cyclopentyl-5-(5-methyl-1H-1,3-benzodiazol-2-yl)pyrrole-2-carbonitrile]",100 to 500 nM
10,Cc1ccc2[nH]c(-c3ccncc3-c3cccc(Cl)c3Cl)nc2c1 [Example 22],500 to 1000 nM
11,"Cc1ccc2[nH]c(C3=C(C4CCCC4)C(=O)OC3)nc2c1 [Compound 8, 3-Cyclopentyl-4-(5-methyl-1H-benzo[d]imidazol-2-yl)furan-2(5H)-one]",> 1000 nM
12,Cn1nc(Cl)c(Cl)c1-n1cnnc1-c1nc2cc(C(F)(F)F)ccc2[nH]1 [Example 63],100 to 500 nM
13,"Cc1ccc2[nH]c(-n3c(-c4cccc(Cl)c4Cl)n[nH]c3=O)nc2c1 [Compound 31, 5-(2,3-dichlorophenyl)-4-(5-methyl-1H-benzo[d]imidazol-2-yl)-2,4-dihydro-3H-1,2,4-triazol-3-one]",> 1000 nM
14,Cc1ccc2[nH]c(-c3c(-c4cccc(Cl)c4Cl)cnn3C)nc2c1 [Example 34],> 1000 nM
15,"Cc1ccc2[nH]c(-c3cccn3C3CCCC3)nc2c1 [Compound 6, 2-(1-cyclopentylpyrrol-2-yl)-5-methyl-1H-benzimidazole]",100 to 500 nM
16,COc1ccc(-c2cccc(Cl)c2Cl)c(-c2nc3cc(C(F)(F)F)ccc3[nH]2)n1 [Example 60],> 1000 nM

# More lines, now with the values ahead:
row,IC50,SMILES
1,≤ 100 nM,"CC(F)(F)c1cc(F)c2[nH]c(-c3nncn3-c3cnccc3C(F)(F)F)nc2c1 [Compound 468, 6-(1,1-difluoroethyl)-4-fluoro-2-(4-(4-(trifluoromethyl)pyridin-3-yl)-4H-1,2,4-triazol-3-yl)-1H-benzo[d]imidazole]"
2,100 to 500 nM,"NC(=O)c1nc(Cl)c(-n2cnnc2-c2nc3cc(C(F)(F)F)cc(F)c3[nH]2)s1 [Compound 216, 4-chloro-5-(3-(7-fluoro-5-(trifluoromethyl)-1H-benzo[d]imidazol-2-yl)-4H-1,2,4-triazol-4-yl)thiazole-2-carboxamide]"
3,≤ 100 nM,"CC(c1cc(F)c2[nH]c(-c3nncn3-c3cnccc3C(F)(F)F)nc2c1)c1nccs1 (single isomer, unassigned) [Compound 434, 2-(1-(7-fluoro-2-(4-(4-(trifluoromethyl)pyridin-3-yl)-4H-1,2,4-triazol-3-yl)-1H-benzo[d]imidazol-5-yl)ethyl)thiazole]"
4,≤ 100 nM,"CN(CC(F)F)c1cc(F)c2[nH]c(-c3nncn3-c3cnccc3C(F)(F)F)nc2c1 [Compound 318, N-(2,2-difluoroethyl)-7-fluoro-N-methyl-2-(4-(4-(trifluoromethyl)pyridin-3-yl)-4H-1,2,4-triazol-3-yl)-1H-benzo[d]imidazol-5-amine]"
5,≤ 100 nM,"FC(F)(F)c1ccc2[nH]c(-c3ccnn3-c3cnccc3C(F)(F)F)nc2c1 [Compound 449, 5-(trifluoromethyl)-2-(1-(4-(trifluoromethyl)pyridin-3-yl)-1H-pyrazol-5-yl)-1H-benzo[d]imidazole]"
6,≤ 100 nM,CC(C)Oc1ccc2[nH]c(-c3nncn3-c3cccc(Cl)c3Cl)nc2c1 [compound 109]
7,100 to 500 nM,"FC(F)(F)c1ccc2[nH]c(-c3ccnnc3-c3cccc(Cl)c3Cl)nc2c1 [Compound 296, 2-(3-(2,3-dichlorophenyl)pyridazin-4-yl)-5-(trifluoromethyl)-1H-benzo[d]imidazole]"
8,≤ 100 nM,"Fc1cc(OCC(F)F)cc2nc(-c3nncn3-c3cnccc3C(F)(F)F)[nH]c12 [Compound 331, 5-(2,2-difluoroethoxy)-7-fluoro-2-(4-(4-(trifluoromethyl)pyridin-3-yl)-4H-1,2,4-triazol-3-yl)-1H-benzo[d]imidazole]"
9,≤ 100 nM,"Fc1cc(C2CC23CCOCC3)cc2nc(-c3nncn3-c3cnccc3C(F)(F)F)[nH]c12 (stereo not shown) [Compound 360, 7-fluoro-5-(6-oxaspiro[2.5]octan-2-yl)-2-[4-[4-(trifluoromethyl)-3-pyridyl]-1,2,4-triazol-3-yl]-1H-benzimidazole]"
10,100 to 500 nM,"FC(F)(F)c1ccncc1-n1cnnc1-c1nc2cc(C3CCOCC3)ccc2[nH]1 [Compound 352, 5-tetrahydropyran-4-yl-2-[4-[4-(trifluoromethyl)-3-pyridyl]-1,2,4-triazol-3-yl]-1H-benzimidazole]"
11,≤ 100 nM,"FC(F)(F)c1ccc2[nH]c(-c3cccn3-c3nnccc3C(F)(F)F)nc2c1 [Compound 305, 5-(Trifluoromethyl)-2-(1-(4-(trifluoromethyl)pyridazin-3-yl)-1H-pyrrol-2-yl)-1H-benzo[d]imidazole]"
12,≤ 100 nM,"C=Cc1ccc2[nH]c(-c3nncn3-c3cnccc3C(F)(F)F)nc2c1 [Compound 276, 2-(4-(4-(trifluoromethyl)pyridin-3-yl)-4H-1,2,4-triazol-3-yl)-5-vinyl-1H-benzo[d]imidazole]"
13,≤ 100 nM,"Nc1nnc(-c2nc3cc(C(F)(F)F)cc(F)c3[nH]2)n1-c1cnccc1C(F)(F)F [Compound 456, 5-(7-fluoro-5-(trifluoromethyl)-1H-benzo[d]imidazol-2-yl)-4-(4-(trifluoromethyl)pyridin-3-yl)-4H-1,2,4-triazol-3-amine]"
14,≤ 100 nM,"CCc1ccncc1-n1cnnc1-c1nc2cc(C(F)(F)F)ccc2[nH]1 [Compound 231, 2-(4-(4-ethylpyridin-3-yl)-4H-1,2,4-triazol-3-yl)-5-(trifluoromethyl)-1H-benzo[d]imidazole]"
15,≤ 100 nM,CC(C)(O)c1ccc2[nH]c(-c3nnccc3-c3cnccc3C(F)(F)F)nc2c1 [Compound 323]
16,≤ 100 nM,"Cc1ccc2[nH]c(-c3nncn3-c3cccc(Cl)c3Cl)nc2c1 [Example 5, 2-(4-(2,3-dichlorophenyl)-4H-1,2,4-triazol-3-yl)-5-methyl-1H-benzo[d]imidazole]"
17,≤ 100 nM,"FC(F)(F)c1ccc2[nH]c(-c3nncn3-c3cnccc3C(F)(F)F)cc2c1 [Compound 258, 5-(trifluoromethyl)-2-(4-(4-(trifluoromethyl)pyridin-3-yl)-4H-1,2,4-triazol-3-yl)-1H-indole]"
18,≤ 100 nM,"FC(F)(F)Oc1cnc(C2CC2)cc1-n1cnnc1-c1nc2cc(C(F)(F)F)ccc2[nH]1 [Compound 221, 2-(4-(2-cyclopropyl-5-(trifluoromethoxy)pyridin-4-yl)-4H-1,2,4-triazol-3-yl)-5-(trifluoromethyl)-1H-benzo[d]imidazole]"
